The source of these data is patent US12576099B2, “Ribose-modified cap analog and use thereof” (Beijing Youcare Kechuang Pharmaceutical Technology Co., Ltd., priority 2024, dated 2026).

In one series the target is T1, DCP2 enzyme (Schizosaccharomyces pombe, UniProt O13828).
T1 construct: purchased New England Biolabs
T1 sequence (O13828 1-243 limits assumed): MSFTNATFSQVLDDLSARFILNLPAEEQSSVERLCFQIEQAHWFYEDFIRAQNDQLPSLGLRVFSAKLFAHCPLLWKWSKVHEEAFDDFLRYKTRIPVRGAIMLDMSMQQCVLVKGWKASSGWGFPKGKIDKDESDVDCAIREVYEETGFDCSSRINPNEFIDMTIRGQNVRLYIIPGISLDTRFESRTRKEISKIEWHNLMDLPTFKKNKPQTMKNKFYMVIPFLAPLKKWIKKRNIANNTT
T1 sequence (Q9P805 1-127 partner): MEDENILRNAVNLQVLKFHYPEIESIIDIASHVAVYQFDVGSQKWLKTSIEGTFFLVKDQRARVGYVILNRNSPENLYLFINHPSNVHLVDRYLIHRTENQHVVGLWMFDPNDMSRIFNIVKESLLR
T1 sequence (Q10108 155-180 partner limits assumed): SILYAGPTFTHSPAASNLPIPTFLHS
Put plainly: Decapping enzyme stability test. It is filed as biochemical. To be noted: for Decapping rate (%) of DCP2 enzyme: 50 U mRNA decapping enzyme, 37° C., 45 minutes. A digest of the protocol: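 PAGE-purified RNA ([…]) incubated with 50 U mRNA decapping enzyme in 1×MDE buffer at 37° C. for 45 minutes. Products resolved by PAGE, SYBR Green II stained; decapping rate derived from capped-to-decapped band intensity ratio.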

In a further series the target is T7 RNA polymerase (Escherichia phage T7, UniProt P00573). The experiment in a line: Capping rate of mRNA transcription initiated by cap analogs (LC-MS). The class given is biochemical. The following applies: for Capping rate: LC-MS of mRNA 5′ fragment. A digest of the protocol: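 mRNA was transcribed from linearized DNA template with T7 RNA polymerase, NTPs and cap analog for 2 h at 37 °C, then DNase-treated and purified. Product was annealed to a probe and captured on magnetic beads, and the 5′ fragment was released by RNase H (3 h, 37 °C). Capping rate was determined by LC-MS from the mass difference between capped and uncapped ends.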

Series [1] is described as follows: Characterization of lipid nanoparticles encapsulating Fluc-mRNA prepared from different cap structures. To be noted: for Particle size: LNP (YK-009/DSPC/cholesterol/DMG-PEG2000) with Fluc-mRNA transcribed using the named cap analog; for PDI: LNP with Fluc-mRNA transcribed using the named cap analog; for EE: encapsulation efficiency of LNP with Fluc-mRNA transcribed using the named cap analog. It is filed as physicochemical. A digest of the protocol: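 LNPs of YK-009/DSPC/cholesterol/DMG-PEG2000 (49:10:39.5:1.5) made by microfluidic mixing with Fluc-mRNA in 50 mM citrate pH 4, lipid:mRNA ~15:1 w/w, then ultrafiltered into PBS and 0.2 μm filtered. Size and PDI by DLS (90°, 25 °C, triplicate); encapsulation efficiency by RiboGreen assay.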

Structures are written as SMILES.

Chain of T7 RNA polymerase (P00573 whole entry, the tested form may be a part): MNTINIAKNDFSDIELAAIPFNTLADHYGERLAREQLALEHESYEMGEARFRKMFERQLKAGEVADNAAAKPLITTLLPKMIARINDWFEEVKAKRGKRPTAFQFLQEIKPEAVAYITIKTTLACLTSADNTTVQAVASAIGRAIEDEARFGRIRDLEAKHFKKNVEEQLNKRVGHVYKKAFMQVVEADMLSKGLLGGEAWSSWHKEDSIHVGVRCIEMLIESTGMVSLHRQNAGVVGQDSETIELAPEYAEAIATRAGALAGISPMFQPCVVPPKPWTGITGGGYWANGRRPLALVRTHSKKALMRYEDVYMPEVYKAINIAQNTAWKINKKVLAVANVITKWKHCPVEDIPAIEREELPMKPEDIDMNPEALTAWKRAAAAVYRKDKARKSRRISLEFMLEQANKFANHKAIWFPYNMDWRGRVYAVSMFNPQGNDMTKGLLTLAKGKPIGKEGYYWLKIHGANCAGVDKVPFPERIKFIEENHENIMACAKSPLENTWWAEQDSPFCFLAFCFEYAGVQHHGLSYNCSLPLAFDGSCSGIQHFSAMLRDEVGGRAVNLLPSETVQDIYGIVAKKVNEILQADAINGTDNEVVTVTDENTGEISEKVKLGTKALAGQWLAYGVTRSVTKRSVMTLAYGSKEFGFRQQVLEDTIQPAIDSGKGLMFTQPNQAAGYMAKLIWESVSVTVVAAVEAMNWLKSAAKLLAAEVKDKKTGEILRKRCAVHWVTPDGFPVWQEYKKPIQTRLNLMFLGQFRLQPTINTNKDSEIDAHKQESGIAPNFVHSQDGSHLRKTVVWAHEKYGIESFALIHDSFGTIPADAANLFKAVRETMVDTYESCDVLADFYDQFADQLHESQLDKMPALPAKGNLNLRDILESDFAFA

With `CCN(CC)C(=O)[C@H]1[C@@H](O)[C@H]([n+]2cn(C)c3c(=O)[nH]c(N)nc32)O[C@@H]1COP(=O)(O)OP(=O)(O)OP(=O)(O)OC[C@H]1O[C@@H](n2cnc3c(N)ncnc32)[C@H](OC)[C@@H]1OP(=O)(O)OC[C@H]1O[C@@H](n2cnc3c(=O)[nH]c(N)nc32)[C@H](O)[C@@H]1O` [YK-CAP-111], on DCP2 enzyme, the “Decapping rate (%) of DCP2 enzyme” value came out at 11.5% and the “Decrease relative to N-7113 (decapping rate)” value is given as 32.3%. At T7 RNA polymerase, the Capping rate is given as 98.1% and the “Increase relative to 5227 (capping rate)” value was determined as 36.4%. Further, the “Capping rate, times that of YK-CAP-101” value at T7 RNA polymerase (relative to YK-CAP-101) is on record as 2.3 times. Moreover, the “Capping rate, times that of YK-CAP-102” value at T7 RNA polymerase (relative to YK-CAP-102) was 3.2 times. The “Capping rate, times that of YK-CAP-103” value on T7 RNA polymerase (relative to YK-CAP-103) is given as 1.4 times. Besides, the “Capping rate, times that of YK-CAP-104” value at T7 RNA polymerase (relative to YK-CAP-104) stood at 1.3 times. Moreover, at T7 RNA polymerase (relative to YK-CAP-105), the “Capping rate, times that of YK-CAP-105” value amounted to 1.4 times. Moreover, the “Capping rate higher than that of compound 14” value on T7 RNA polymerase (relative to compound 14) is 25.3%. Further, in series [1], the Particle size turned out to be 78.33 nm, the PDI amounted to 0.053 and the EE was found to be 95.1%.
For the compound `CO[C@@H]1[C@H](OP(=O)(O)OC[C@H]2O[C@@H](n3cnc4c(=O)[nH]c(N)nc43)[C@H](O)[C@@H]2O)[C@@H](COP(=O)(O)OP(=O)(O)OP(=O)(O)OC[C@@]2(OC)O[C@@H]([n+]3cn(C)c4c(=O)[nH]c(N)nc43)[C@H](O)[C@@H]2O)O[C@H]1n1cnc2c(N)ncnc21` [compound 5227, reference compound], at DCP2 enzyme, the “Decapping rate (%) of DCP2 enzyme” value is given as 23.2% and the “Decrease relative to N-7113 (decapping rate)” value is reported as 20.6%. Further, at T7 RNA polymerase, the Capping rate was found to be 71.9% and the “Increase relative to 5227 (capping rate)” value came out at 0%. Also, in series [1], the Particle size worked out at 83.34 nm, the PDI was 0.028 and the EE was 94.9%.
Turning to `CO[C@@H]1[C@H](OP(=O)(O)OC[C@H]2O[C@@H](n3cnc4c(=O)[nH]c(N)nc43)[C@H](O)[C@@H]2O)[C@@H](COP(=O)(O)OP(=O)(O)OP(=O)(O)OC[C@H]2O[C@@H]([n+]3cn(C)c4c(=O)[nH]c(N)nc43)[C@H](O)[C@@H]2C(C)F)O[C@H]1n1cnc2c(N)ncnc21` (stereo partly shown) [YK-CAP-109], at DCP2 enzyme, the “Decapping rate (%) of DCP2 enzyme” value stood at 17.3% and the “Decrease relative to N-7113 (decapping rate)” value is 26.5%. Moreover, at T7 RNA polymerase, the Capping rate is 95.2% and the “Increase relative to 5227 (capping rate)” value came out at 32.4%. In series [1], this compound displayed a Particle size of 86.35 nm, a PDI of 0.035 and an EE of 97.2%.
As for `CO[C@@H]1[C@H](OP(=O)(O)OC[C@H]2O[C@@H](n3cnc4c(=O)[nH]c(N)nc43)[C@H](O)[C@@H]2O)[C@@H](COP(=O)(O)OP(=O)(O)OP(=O)(O)OC[C@H]2OC([n+]3cn(C)c4c(=O)[nH]c(N)nc43)[C@H](O)[C@@H](O)[C@@H]2O)O[C@H]1n1cnc2c(N)ncnc21` (stereo partly shown) [YK-CAP-101], on DCP2 enzyme, the “Decapping rate (%) of DCP2 enzyme” value was found to be 32.4% and the “Decrease relative to N-7113 (decapping rate)” value was found to be 11.4%. Moreover, at T7 RNA polymerase, the Capping rate is on record as 42.8% and the “Increase relative to 5227 (capping rate)” value is reported as −40.5%. Moreover, in series [1], the Particle size is recorded as 75.45 nm, the PDI is recorded as 0.043 and the EE came out at 93.4%.
